Data published in PubChem BioAssay AID1645848.
Values after ≈ are worked out from the molar mass of the structure shown.

Details: buffer; pH 7.4; 6.0 h; 150.0 µM

| SMILES | solubility kinetic [µg/mL] |
| --- | --- |
| COc1ccc(-n2nc(C3CCCN([S+](=O)([O-])c4cccc(C(F)(F)F)c4)C3)[nH]c2=O)cc1 (stereo not given) | < 1 |
| Cc1cc(CNC(=O)c2ccc3c(c2)n(CC2CC2)c(=O)n3C2CCCCC2)on1 | 15.6 (≈ 38.3 µM) |
| COc1ccc(CCNC(=O)c2cc3c(=O)n4ccccc4nc3n(CCCN3CCOCC3)c2=N)cc1 | > 76 |
| CC[C@@H]1C(=O)N(C)c2cnc(Nc3ccc(C(=O)NC4CCN(C)CC4)cc3OC)nc2N1C1CCCC1 | > 77 |
| CC(CNC(=O)C1CCN(Cc2cc3ccccc3n2Cc2ccccc2)CC1)c1ccccc1 (stereo not given) | 1.05 (≈ 2.25 µM) |
| Cc1ccc(S(=O)(=O)Nc2cnccc2C(=O)Nc2nc(-c3cc(Br)cs3)cs2)cc1 | 0.958 (≈ 1.79 µM) |
| CCOC(=O)C1CCN(C(=O)C2(NC(=O)Nc3ccccc3Cl)CCCC2)CC1 | 41.8 (≈ 99 µM) |
| CC1=C(C(=O)Nc2nncs2)C(c2nn(C)cc2Cl)N=C(Nc2nc3ccccc3o2)N1 (stereo not given) | 16.3 (≈ 34.6 µM) |
| N#Cc1cccc(S(=O)(=O)Nc2cnccc2C(=O)Nc2nc(-c3ccccc3)cs2)c1 | 34.3 (≈ 74.3 µM) |
| O=S(=O)(Nc1nccs1)c1ccc(NCc2ccc(Br)cc2O)cc1 | < 1 |
| O=C(CNC(=O)c1cnccn1)NC1CCCc2c1[nH]c1ccc(Cl)cc21 (stereo not given) | 1.46 (≈ 3.79 µM) |
| O=C(Nc1ccc(Cl)cc1)Nc1ccc(Cl)c(Cl)c1 | < 1 |
| COc1ccc(-c2nc(Nc3ccc(F)c(F)c3)c3ccccc3n2)cc1 | < 1 |
| Fc1cc(Nc2nc(-c3ccncc3)nc3ccccc23)ccc1-c1ccnc(C(F)(F)F)c1 | < 1 |
| O=S(=O)(c1ccc2ccccc2c1)N1CCN(c2nc(-c3cccs3)nc3ccccc23)CC1 | < 1 |
| Cc1ccc(-c2cc(C(=O)Nc3cccc(S(=O)(=O)Nc4nccs4)c3)c3ccccc3n2)cc1C | < 1 |
| COc1cccc(CNc2ccc(S(=O)(=O)Nc3nccs3)cc2)c1N | > 58 |
| NC(=O)N1CCN(c2nc(-c3ccc(Br)cc3)cs2)CC1 | 1.84 (≈ 5.01 µM) |
| CCOC(=O)[C@H]1O[C@@H]1C(=O)N[C@@H](CC(C)C)C(=O)NCCC(C)C | 24 (≈ 70.1 µM) |
| Cc1ccc(S(=O)(=O)Nc2cnccc2C(=O)Nc2ccc(-c3nc4ccccc4[nH]3)cc2)cc1 | < 1 |
| Cc1c(CN(C)c2cc(C3CC(O)C3)nc(N)n2)[nH]c2ccccc12 (stereo not given) | > 50 |
| NC1CCN(c2nc(-c3ccc(Br)cc3)cs2)CC1 | 8.9 (≈ 26.3 µM) |
| Cc1ccccc1C(=O)N1CCc2cc(-c3nc(NC(=O)Cc4ccc5ccccc5c4)sc3C)ccc21 | < 1 |
| COc1cccc(CNCc2cccn2-c2nnc(N3CCN(c4ccccc4)CC3)s2)c1 | 5.15 (≈ 11.2 µM) |

| SMILES | solubility kinetic [µg/mL] |
| --- | --- |
| CCc1ccc(NC(=O)c2[nH]c(C)c(C(C)=O)c2C)cc1S(=O)(=O)Nc1ccc(C#N)cc1 | 2.19 (≈ 4.72 µM) |
| Cc1ccc(-n2nc3c(=O)n(CCCC(=O)NC(C)c4ccccc4)nc(C)c3c2C)cc1 (stereo not given) | 4.59 (≈ 10.4 µM) |
| CCCC1=Nc2cc(C(=O)NC3CCCCC3)ccc2Sc2ccc(C)cc21 | 1.37 (≈ 3.48 µM) |
| O=[N+]([O-])c1cccnc1N/N=C/c1ccccc1O | < 1 |
| O=C1C(c2ccc(C(F)(F)F)cc2)=C(Nc2ccc(Cl)cc2)c2ccccc21 | < 1 |
| CC(C)c1ccc(Nc2c(-c3ccccn3)nc3ccccn23)cc1 | < 1 |
| O=C(NCc1cccs1)c1cn2cc(-c3ccccc3)sc2n1 | < 1 |
| COc1ccc(/C=C2/C(=O)Nc3ccccc32)cc1O | 29.2 (≈ 109 µM) |
| O=C(Nc1ccc2c(N3CCOCC3)ncnc2c1)c1cccc(Br)c1 | 9.48 (≈ 22.9 µM) |
| CC(=O)N1CCN(c2nc(-c3ccc(Br)cc3)cs2)CC1 | < 1 |
| FC(F)(F)c1ccc(CN2CCNc3cc(Nc4ccccc4)ncc3C2)cc1 | < 1 |
| Nc1nc2c(s1)C(c1cccc(F)c1F)CC(=O)N2 (stereo not given) | 8.33 (≈ 29.6 µM) |
| COc1cccc(C(=O)Nc2cccc(OCc3cc(=O)n4cccc(C)c4n3)c2)c1 | < 1 |
| Cc1ccc(S(=O)(=O)N2CCN(C(=O)c3cc4c(s3)CCC4)CC2)cc1 | < 1 |
| Cc1ccnc(NC(=S)N2CCN(c3cccc(C(F)(F)F)c3)C[C@@H]2C)c1 | 3.88 (≈ 9.84 µM) |
| CCOc1cc(CNc2ccc(O)cc2)ccc1OCc1ccc(Cl)cc1 | 4.36 (≈ 11.4 µM) |
| CCCCCn1c(=O)[nH]c2cc(C(=O)NCCCN3CCCCC3)ccc2c1=O | > 59 |
| O=C(Nc1ncc([S+](=O)([O-])N2CCOCC2)s1)c1cccc(Br)c1 | 2.94 (≈ 6.79 µM) |
| CC1(C)CC2CC(C)(CN2S(=O)(=O)c2ccc(C(=O)Nc3ccc(Cl)cc3)cc2)C1 (stereo not given) | < 1 |
| COc1c(Cl)cc2c([nH]c3cnccc32)c1NC(=O)c1cccnc1C | 6.08 (≈ 16.6 µM) |
| Cc1ccc2nc(-c3ccccn3)c(Nc3ccccc3C)n2c1 | < 1 |
| CS(=O)(=O)c1cccc(-c2csc(N3CCC(C(N)=O)CC3)n2)c1 | 11.7 (≈ 32 µM) |
| N#Cc1nc(-c2cccc3ccccc23)oc1NCc1ccccc1 | < 1 |
| CC(C)n1cc(-c2ccc(Oc3ccccc3)cc2)c2c(N)ncnc21 | < 1 |

| SMILES | solubility kinetic [µg/mL] |
| --- | --- |
| COc1ccc(-n2nc(C3CCN([S+](=O)([O-])c4cccc(C(F)(F)F)c4)CC3)[nH]c2=O)cc1 | < 1 |
| COc1cccc(CNc2ccc(S(=O)(=O)Nc3nc(C)c(C)s3)cc2)c1O | 1.83 (≈ 4.35 µM) |
| CC1CN(c2ccc(Nc3nc(-c4ccncc4)nc4ccccc34)cc2F)CC(C)O1 (stereo not given) | < 1 |
| Oc1ccc(-c2nc(C3CC3)nc3c2CCN(CC2CCCCC2)CC3)cc1 | 11.3 (≈ 29.9 µM) |
| COc1cccc(CNC(=O)CCCn2nc(C)c3c(C)n(-c4ccc(C)cc4)nc3c2=O)c1OC | 2.58 (≈ 5.26 µM) |
| c1ccc(-c2nc(N3CCCCCC3)c3ccccc3n2)nc1 | > 45 |
| COc1ccc(-n2nc(C3CCCN(C(=O)c4ccc(C)cc4)C3)[nH]c2=O)cc1 (stereo not given) | 39.4 (≈ 100 µM) |
| COc1cc(NS(=O)(=O)c2ccc(C)cc2)cc(C(=O)Nc2nc(-c3ccccc3)cs2)c1 | < 1 |
| COC(=O)[C@H](NC(=O)c1cc(-c2ccccc2)nc2ccccc12)c1ccccc1 | < 1 |
| COc1cc(Cl)c(C)cc1NS(=O)(=O)c1c(C)nc2sccn2c1=O | < 1 |
| CCN1C(=O)c2ccccc2S(=O)c2ccc(C(=O)NCc3ccc(OC)cc3)cc21 (stereo not given) | 10.4 (≈ 23.9 µM) |
| Cc1sc2c(c1C)C(c1ccc(Cl)cc1)=N[C@H](CC(=O)NCCCCNC(=O)COc1cccc3c1C(=O)N([C@H]1CCC(=O)NC1=O)C3=O)c1nnc(C)n1-2 | 63.8 (≈ 81.2 µM) |
| CC(=O)c1ccc(N[S+](=O)([O-])c2cccc(NC(=O)c3[nH]c(C)c(C(C)=O)c3C)c2)cc1 | 21.3 (≈ 47 µM) |
| COc1cc2c(C(=O)N3CCN(c4cccc(C(F)(F)F)c4)CC3)cn(CC(C)C)c(=O)c2cc1OC | 4.92 (≈ 9.5 µM) |
| CC(=O)Nc1ccc(-c2csc(N3CCC(C(N)=O)CC3)n2)cc1 | > 51 |
| O=C(Cc1ccc2ccccc2c1)Nc1ccc(S(=O)(=O)Nc2nccs2)cc1 | 0.228 (≈ 0.538 µM) |
| O=C1/C(=C\c2ccccc2)C[C@@]2(O)C3Cc4ccc(O)c5c4[C@@]2(CCN3CC2CC2)[C@H]1O5 | > 42 |
| CCCCOc1ccc(CC(=O)NO)cc1 | 13.6 (≈ 60.9 µM) |
| O=C(NCCCO)c1ccc(-c2ncc3cnc(-c4cccc(F)c4)cn23)cc1 | > 86 |
| CCN(CC)CCNC(=O)c1c(C)[nH]c(C=C2C(=O)Nc3ccc(F)cc32)c1C | > 59 |
| CCOC(=O)C1=C(C)NC(=O)CC1C(=O)Nc1cc(Cl)cc(Cl)c1 (stereo not given) | 22.4 (≈ 60.2 µM) |
| CS(=O)(=O)c1ccc(-c2csc(N3CCC(C(N)=O)CC3)n2)cc1 | 7.22 (≈ 19.8 µM) |
